Laboratory results published in BindingDB's records for doi:10.1016/s0960-894x(00)00478-9 (Laval University, 2001).

Experiments:
[1] = The compound was evaluated for inhibition of Glutaminyl-tRNA synthetase with respect to glutamine.
[2] = target: Glutamine--tRNA ligase (Escherichia coli) (UniProt P00962); test: The compound was evaluated for inhibition of Glutaminyl-tRNA synthetase for Escherichia coli with respect to ATP.
Sequence of Glutamine--tRNA ligase (Escherichia coli) (P00962 whole entry, looked up): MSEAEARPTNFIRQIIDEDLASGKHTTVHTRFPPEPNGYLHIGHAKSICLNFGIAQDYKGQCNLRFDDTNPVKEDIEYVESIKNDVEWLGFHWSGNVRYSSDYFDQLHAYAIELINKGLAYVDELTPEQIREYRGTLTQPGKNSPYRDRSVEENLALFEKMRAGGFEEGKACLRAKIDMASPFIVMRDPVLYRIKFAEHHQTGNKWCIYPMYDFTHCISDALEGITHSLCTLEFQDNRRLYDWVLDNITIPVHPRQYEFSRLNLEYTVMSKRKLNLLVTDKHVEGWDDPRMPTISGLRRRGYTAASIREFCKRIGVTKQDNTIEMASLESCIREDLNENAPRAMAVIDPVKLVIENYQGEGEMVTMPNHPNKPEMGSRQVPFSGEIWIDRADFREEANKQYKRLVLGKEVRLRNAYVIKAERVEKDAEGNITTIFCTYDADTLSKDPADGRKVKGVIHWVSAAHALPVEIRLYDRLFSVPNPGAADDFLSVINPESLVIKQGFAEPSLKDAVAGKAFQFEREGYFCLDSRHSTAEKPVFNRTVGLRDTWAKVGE

NC(=O)CCC(N)COP(=O)(O)OC[C@H]1OC(n2cnc3c(N)ncnc32)[C@H](O)[C@@H]1O (some centres not stated)
Ki [1]: 280 nM
Ki [2]: 860 nM
